Laboratory results: the CheMixHub viscosity set

Experiment: xn = mol fraction of the nth substance listed

CC1(C)OCC(CO)O1 (configuration not stated) + OCCO
viscosity [mPa·s], 101 kPa
Settings	x1 = 0.0997	x1 = 0.2	x1 = 0.3008	x1 = 0.3988	x1 = 0.5014	x1 = 0.6	x1 = 0.7003	x1 = 0.8	x1 = 0.8997
298.15 K	15.54	14.27	12.57	11.4	10.31	9.722	9.762	9.801	9.695
308.15 K	10.5	9.645	8.569	7.712	6.932	6.525	6.516	6.912	6.889
318.15 K	7.537	6.894	6.139	5.409	4.898	4.639	4.882	5.057	5.085

OC1CCCCC1 + OCCO
viscosity [mPa·s], 100 kPa
Settings	293.15 K	298.15 K	303.15 K	308.15 K	313.15 K	318.15 K
x1 = 0.0097	20.9	16.96	13.79	11.32	9.626	7.932
x1 = 0.0396	21.26	17.11	13.94	11.35	9.765	8.069
x1 = 0.058	21.37	17.21	14.04	11.44	9.849	8.139
x1 = 0.088	21.54	17.34	14.16	11.54	9.965	8.26
x1 = 0.1001	21.6	17.4	14.2	11.58	10	8.294
x1 = 0.1963	21.79	17.59	14.34	11.66	10.09	8.427
x1 = 0.3051	21.94	17.71	14.45	11.76	10.19	8.481
x1 = 0.397	22.13	17.96	14.66	12.02	10.42	8.606
x1 = 0.4994	23.25	18.43	15.1	12.54	10.71	8.723
x1 = 0.5878	26.46	20.22	16.33	12.82	11.32	9.179
x1 = 0.6994	31.25	23.24	18.88	14.44	12.15	9.912
x1 = 0.7971	38.27	28.43	22.87	17.78	14.34	11.34
x1 = 0.8978	53.55	38	28.77	22.38	17.93	13.99

CC(=O)CC(C)(C)O + OCc1ccccc1
298.15 K, 101 kPa
Settings	viscosity [mPa·s]
x2 = 0.0518	2.886
x2 = 0.1087	3.021
x2 = 0.1705	3.199
x2 = 0.2406	3.41
x2 = 0.3325	3.67
x2 = 0.3445	3.703
x2 = 0.4344	3.968
x2 = 0.5378	4.295
x2 = 0.6345	4.596
x2 = 0.7171	4.831
x2 = 0.7554	4.935
x2 = 0.8122	5.096
x2 = 0.878	5.303
x2 = 0.9123	5.42
x2 = 0.9146	5.43

OC1CCCCC1 + Oc1ccccc1
298.15 K, 101.3 kPa
Settings	viscosity [mPa·s]
x1 = 0.79	27.6
x1 = 0.89	37.1

CCC(N)=O + [Al+3].[Cl-].[Cl-].[Cl-]
viscosity [mPa·s], 101 kPa
Settings	x2 = 0.5	x2 = 0.52	x2 = 0.57	x2 = 0.6	x2 = 0.63
313 K	32.65	25.38	23.95	24.65	25.32
323 K	23.49	19.12	17.93	18.32	18.7

CCCCCCCO + c1ccccc1
viscosity [mPa·s], 100 kPa
Settings	x2 = 0.0864	x2 = 0.1561	x2 = 0.2397	x2 = 0.3469	x2 = 0.4396	x2 = 0.5661	x2 = 0.6446	x2 = 0.7517	x2 = 0.8493	x2 = 0.9561
293.15 K	5.514	4.58	3.709	2.802	2.132	1.412	1.117	0.875	0.766	0.681
303.15 K	3.992	3.302	2.668	2.018	1.568	1.053	0.859	0.703	0.625	0.573
313.15 K	2.947	2.439	1.973	1.501	1.172	0.822	0.679	0.573	0.525	0.498
323.15 K	2.279	1.918	1.573	1.203	0.942	0.665	0.556	0.479	0.442	0.437
